The record followed here is patent publication US9879043B1, “Synthesis of non-natural cofactor analogs of S-adenosyl-L-methionine using methionine adenosyltransferase” (University of Kentucky Research Foundation, priority 2013, dated 2018).

Assay type in all cases: biochemical
The target in assay [1] is Escherichia coli MAT (eMAT) (Escherichia coli, UniProt P0A817). The experiment in a line: MAT assay, turnover of S/Se-Met analogs to S(Se)AM analogs (RP-HPLC end point). The following applies: 2 mM Met analog, 1 mM ATP, 5 μM MAT, pH 8, 4 h, 37° C.; average of two assays. Here is the method: Standard uniform assay conditions (2 mM Met analog, 1 mM ATP, 5 μM MAT, 25 mM Tris, 5 mM MgCl2, 50 mM KCl, pH 8, 4 h) were adopted to facilitate this broad assessment. For the thermophilic counterpart (mMAT), reactions were conducted at 65° C., while all other reactions were incubated at 37° C. Production of SAM analogs was determined by an RP-HPLC end point assay to afford complete analysis of the desired SAM analog and/or any corresponding degradation products known to directly derive from the desired SAM analog intermediate. Putative SAM analog and SAM-derived degradative product formation was subsequently confirmed via high-resolution mass spectrometry (HRMS) analysis for all positive reactions (see Table 2).
(§1) To monitor MAT reactions, analytical RP HPLC employed a Luna C18 column (5 μm, 4.6 mm×250 mm; Phenomenex, Torrance, Calif., USA) [gradient of 10% B to 40% B over 15 min, 40% B to 75% B over 5 min (A=10 mM NaH2PO4, 5 mM octane sulfonic acid, pH was adjusted to 3.5 using phosphoric acid; B=acetonitrile) flow rate=1 mL min^−1; A254].
(§2) In vitro MAT reactions were conducted in a volume of 50 μl with 2 mM S/Se-alkylated analog (compounds 2-30), 1 mM ATP and 5 μM purified MAT in 25 mM Tris buffer pH 8.0, 5 mM MgCl2, 50 mM KCl for 4 h. The sMAT and mMAT reactions were conducted at 65° C. while hMATs and eMAT were incubated at 37° C. Reactions were quenched by adding an equal volume of methanol followed by centrifugation (10,000×g for 15 min) to remove the precipitated protein and product formation for each reaction was subsequently analyzed by RP-HPLC using Method D (FIG. 15, first column). For each reaction, percent yield was based upon the integration of species at 254 nm and calculated by dividing the integrated area of product and/or decomposed product by the sum of integrated area of product and/or decomposed product and the remaining substrate. The assays were repeated twice under identical conditions, and Table 2 (and FIG. 5) represents an average value of two assays. The inclusion of adenine and 5′-R-thio-5′-adenosine in these calculations is based upon the established SAM and ATP chemical decomposition pathways which indicate adenine and 5′-R-thio-5′-adenosine to only derive from SAM (not ATP). All putative products were subsequently confirmed by high resolution electrospray ionization (ESI) mass spectra with positive (+) and/or negative (−) mode.

Assay [2] concerns the target T1, Methanocaldococcus jannaschii MAT (mMAT) (Methanocaldococcus jannaschii, UniProt Q58605).
T1 sequence (Q58605 1-406): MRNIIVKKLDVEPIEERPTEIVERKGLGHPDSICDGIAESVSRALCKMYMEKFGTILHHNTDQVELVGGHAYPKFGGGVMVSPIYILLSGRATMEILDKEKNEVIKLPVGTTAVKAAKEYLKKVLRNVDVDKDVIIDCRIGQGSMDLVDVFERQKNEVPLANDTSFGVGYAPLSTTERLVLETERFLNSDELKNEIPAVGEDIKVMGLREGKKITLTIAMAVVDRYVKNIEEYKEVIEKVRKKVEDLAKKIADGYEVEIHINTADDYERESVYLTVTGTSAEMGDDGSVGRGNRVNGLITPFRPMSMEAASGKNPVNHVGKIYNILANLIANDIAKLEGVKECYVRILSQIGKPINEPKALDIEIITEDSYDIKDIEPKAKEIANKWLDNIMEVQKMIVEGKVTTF
The following applies: 2 mM Met analog, 1 mM ATP, 5 μM MAT, pH 8, 4 h, 65° C.; average of two assays. Here is the method:
(§3) Standard uniform assay conditions (2 mM Met analog, 1 mM ATP, 5 μM MAT, 25 mM Tris, 5 mM MgCl2, 50 mM KCl, pH 8, 4 h) were adopted to facilitate this broad assessment. For the thermophilic counterpart (mMAT), reactions were conducted at 65° C., while all other reactions were incubated at 37° C. Production of SAM analogs was determined by an RP-HPLC end point assay to afford complete analysis of the desired SAM analog and/or any corresponding degradation products known to directly derive from the desired SAM analog intermediate.
as §1
as §2, with “The” for “In vitro MAT reactions were conducted in a volume of 50 μl with 2 mM S/Se-alkylated analog (compounds 2-30), 1 mM ATP and 5 μM purified MAT in 25 mM Tris buffer pH 8.0, 5 mM MgCl2, 50 mM KCl for 4 h. The”

The target of assay [3] is T2, Sulfolobus solfataricus MAT (sMAT) (Saccharolobus solfataricus, UniProt Q980S9).
T2 sequence (Q980S9 1-404): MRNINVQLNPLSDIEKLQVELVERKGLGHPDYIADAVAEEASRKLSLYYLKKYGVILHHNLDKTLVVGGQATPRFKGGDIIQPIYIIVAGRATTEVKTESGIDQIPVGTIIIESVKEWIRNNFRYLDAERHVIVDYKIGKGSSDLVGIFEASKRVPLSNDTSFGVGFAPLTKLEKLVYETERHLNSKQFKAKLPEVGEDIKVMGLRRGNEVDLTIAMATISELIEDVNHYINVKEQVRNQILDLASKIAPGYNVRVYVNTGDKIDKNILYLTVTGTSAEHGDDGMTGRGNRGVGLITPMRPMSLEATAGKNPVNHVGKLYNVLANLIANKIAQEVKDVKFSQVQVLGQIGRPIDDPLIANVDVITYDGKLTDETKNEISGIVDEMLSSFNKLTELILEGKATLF
The note with it: 2 mM analog, 1 mM ATP, 5 μM sMAT, pH 8.0, 4 h at 65° C.; average of two assays. The protocol: In-vitro sMAT assay: In vitro sMAT reactions were conducted in a volume of 50 μl with 2 mM S/Se-alkylated analog, 1 mM ATP and 5 μM purified sMAT in 25 mM Tris buffer pH 8.0, 5 mM MgCl2, 50 mM KCl for 4 h at 65° C. Reactions were quenched by adding an equal volume of methanol followed by centrifugation (10,000×g for 15 min) to remove the precipitated protein and product formation for each reaction was subsequently analyzed by reverse phase HPLC (RP-HPLC) using method described below. For each reaction, percent yield was based upon the integration of species at 254 nm and calculated by dividing the integrated area of product and/or decomposed product by the sum of integrated area of product and/or decomposed product and the remaining substrate. The assays were repeated twice under identical conditions, and Table 4 (and FIG. 17) represents an average value of two assays. The inclusion of adenine and 5′-R-thio-5′-adenosine in these calculations is based upon the established SAM and ATP chemical decomposition pathways which indicate adenine and 5′-R-thio-5′-adenosine to only derive from SAM (not ATP). All putative products were subsequently confirmed by high resolution electrospray ionization (ESI) mass spectra with positive (+) and/or negative (−) mode.
RP-HPLC method: Reactions were quenched by the addition of equal volume of methanol followed by centrifugation at 10,000 g for 15 min to remove precipitated protein before applying on an analytical Varian ProStar HPLC [Luna C18 column, 5 μm, 4.6 mm×250 mm; Phenomenex, Torrance, Calif., USA; gradient of 10% B to 40% B over 15 min, 40% B to 75% B over 5 min (A=10 mM NaH2PO4, 5 mM octane sulfonic acid, pH was adjusted to 3.5 using phosphoric acid; B=acetonitrile) flow rate=1 mL min^−1; A254].

In assay [4] the target is human MAT II catalytic alpha subunit alone (hMAT2A) (Homo sapiens, UniProt P31153). Briefly: MAT assay, turnover of S/Se-Met analogs to S(Se)AM analogs (RP-HPLC end point). The note with it: 2 mM Met analog, 1 mM ATP, 5 μM MAT, pH 8, 4 h, 37° C.; average of two assays. Here is the method: as §3, §1
as §2, with “The” for “In vitro MAT reactions were conducted in a volume of 50 μl with 2 mM S/Se-alkylated analog (compounds 2-30), 1 mM ATP and 5 μM purified MAT in 25 mM Tris buffer pH 8.0, 5 mM MgCl2, 50 mM KCl for 4 h. The”

Assay [5] has as its target human MAT I catalytic subunit alpha (hMAT1A) (Homo sapiens, UniProt Q00266). The assay is described as above. The note with it: 2 mM Met analog, 1 mM ATP, 5 μM MAT, pH 8, 4 h, 37° C.; average of two assays. Here is the method:
as §3, §1
as §2, with “The” for “In vitro MAT reactions were conducted in a volume of 50 μl with 2 mM S/Se-alkylated analog (compounds 2-30), 1 mM ATP and 5 μM purified MAT in 25 mM Tris buffer pH 8.0, 5 mM MgCl2, 50 mM KCl for 4 h. The”

In assay [6] the target is human MAT II catalytic alpha and regulatory beta subunit (hMAT2) (Homo sapiens, UniProt P31153). Described as above. The note with it: 2 mM Met analog, 1 mM ATP, 5 μM MAT, pH 8, 4 h, 37° C.; average of two assays. Here is the method:
as §3, §1
as §2, with “The” for “In vitro MAT reactions were conducted in a volume of 50 μl with 2 mM S/Se-alkylated analog (compounds 2-30), 1 mM ATP and 5 μM purified MAT in 25 mM Tris buffer pH 8.0, 5 mM MgCl2, 50 mM KCl for 4 h. The”

`[N-]=[N+]=NCCSCC[C@H](N)C(=O)O` [compound 17, (2S)-2-amino-4-[(2-azidoethyl)sulfanyl]butanoic acid]: the “Percentage Turn-over eMAT” value in assay [1] came to 0%. In addition, the “Percentage Turn-over mMAT” value in assay [2] was found to be 29%. Moreover, in assay [3], the “Percentage Turn-Over (sMAT)” value was 50%. Besides, the “Percentage Turn-over hMAT2A” value in assay [4] stood at 18%. In addition, the “Percentage Turn-over hMAT1A” value in assay [5] is reported as 4%. Moreover, the “Percentage Turn-over hMAT2” value in assay [6] turned out to be 49%.

On to `CC(C)=CCSCC[C@H](N)C(=O)O` [compound 19, (2S)-2-amino-4-[(3-methylbut-2-en-1-yl)sulfanyl]butanoic acid], for which the “Percentage Turn-over eMAT” value in assay [1] was 3%. For the same molecule, in assay [2], the “Percentage Turn-over mMAT” value is 13%. The “Percentage Turn-Over (sMAT)” value in assay [3] is 12%. In assay [4], the “Percentage Turn-over hMAT2A” value is recorded as 4%. Moreover, in assay [5], the “Percentage Turn-over hMAT1A” value is 0%. Further, the “Percentage Turn-over hMAT2” value in assay [6] turned out to be 6%.

Consider `CSCC[C@H](N)C(=O)O` [compound 2, L-methionine], for which the “Percentage Turn-over hMAT2A” value in assay [4] is on record as 100%. Further, the “Percentage Turn-over hMAT2” value in assay [6] turned out to be 100%.

Consider `N#CC[Se]CC[C@H](N)C(=O)O` [compound 6-Se, (2S)-2-amino-4-[(cyanomethyl)selanyl]butanoic acid], for which, in assay [4], the “Percentage Turn-over hMAT2A” value is on record as 23%. Moreover, the “Percentage Turn-over hMAT2” value in assay [6] worked out at 33%.

For the molecule `CC(C)[Se]CC[C@H](N)C(=O)O` [compound 9-Se, (2S)-2-amino-4-(propan-2-ylselanyl)butanoic acid], the “Percentage Turn-over hMAT2A” value in assay [4] is 11%. The “Percentage Turn-over hMAT2” value in assay [6] is on record as 10%.

`C[Se]CC[C@H](N)C(=O)O` [2-Se, L-selenomethionine, reference compound]: in assay [4], the “Percentage Turn-over hMAT2A” value turned out to be 100%. Also, the “Percentage Turn-over hMAT2” value in assay [6] came out at 100%.

As for `C#CCC[Se]CC[C@H](N)C(=O)O` [compound 10-Se, (2S)-2-amino-4-(but-3-yn-1-ylselanyl)butanoic acid], in assay [4], the “Percentage Turn-over hMAT2A” value was 22%. In addition, the “Percentage Turn-over hMAT2” value in assay [6] is 55%.

With `CC(C)=CC[Se]CC[C@H](N)C(=O)O` [compound 19-Se, (2S)-2-amino-4-[(3-methylbut-2-en-1-yl)selanyl]butanoic acid], the “Percentage Turn-over hMAT2A” value in assay [4] is listed as 9%. The “Percentage Turn-over hMAT2” value in assay [6] was found to be 15%.

With `C=C(C)C[Se]CC[C@H](N)C(=O)O` [compound 12-Se, (2S)-2-amino-4-[(2-methylprop-2-en-1-yl)selanyl]butanoic acid], the “Percentage Turn-over hMAT2A” value in assay [4] was 11%. In addition, the “Percentage Turn-over hMAT2” value in assay [6] is 12%.

Regarding `C=CC[Se]CC[C@H](N)C(=O)O` [compound 7-Se, (2S)-2-amino-4-(prop-2-en-1-ylselanyl)butanoic acid], the “Percentage Turn-over hMAT2A” value in assay [4] is recorded as 42%. In assay [6], the “Percentage Turn-over hMAT2” value came to 59%.

Turning to `[N-]=[N+]=NC/C=C/C[Se]CC[C@H](N)C(=O)O` [compound 23-Se, (2S)-2-amino-4-{[(2E)-4-azidobut-2-en-1-yl]selanyl}butanoic acid], the “Percentage Turn-over hMAT2A” value in assay [4] was 9%. For the same molecule, the “Percentage Turn-over hMAT2” value in assay [6] worked out at 15%.

For the molecule `CCCC[Se]CC[C@H](N)C(=O)O` [compound 13-Se, (2S)-2-amino-4-(butylselanyl)butanoic acid], the “Percentage Turn-over hMAT2A” value in assay [4] is given as 26%. Besides, the “Percentage Turn-over hMAT2” value in assay [6] is listed as 49%.

Consider `NC/C=C/C[Se]CC[C@H](N)C(=O)O` [compound 24-Se, (2S)-2-amino-4-{[(2E)-4-aminobut-2-en-1-yl]selanyl}butanoic acid], for which the “Percentage Turn-over hMAT2A” value in assay [4] was found to be 16%. Besides, the “Percentage Turn-over hMAT2” value in assay [6] was found to be 25%.

Consider `CCC[Se]CC[C@H](N)C(=O)O` [compound 8-Se, (2S)-2-amino-4-(propylselanyl)butanoic acid], for which, in assay [4], the “Percentage Turn-over hMAT2A” value was 24%. The “Percentage Turn-over hMAT2” value in assay [6] is 74%.

In the case of `C#CC[Se]CC[C@H](N)C(=O)O` [compound 4-Se, (2S)-2-amino-4-(prop-2-yn-1-ylselanyl)butanoic acid], in assay [4], the “Percentage Turn-over hMAT2A” value was found to be 44%. Further, in assay [6], the “Percentage Turn-over hMAT2” value was 58%.

With `CC[Se]CC[C@H](N)C(=O)O` [compound 3-Se, (2S)-2-amino-4-(ethylselanyl)butanoic acid], the “Percentage Turn-over hMAT2A” value in assay [4] worked out at 53%. In addition, in assay [6], the “Percentage Turn-over hMAT2” value was 82%.
